These results are taken from patent publication US11834454B2, “Alkynylphenylbenzamide compounds and applications thereof” (SHENZHEN NEWDEL BIOTECH CO., LTD., priority 2021, dated 2023).

The target in one data set is T1, TRKC (Homo sapiens, UniProt Q16288).
T1 construct: purchased American Life Technologies PV3617
The experiment in a line: Z'-LYTE kinase activity detection, TRKC. Type of data set: biochemical.

A further data set deals with T2, BaF3-CD74-NTRK1 (Homo sapiens, UniProt P04629).
T2 construct: fused on or other part: P04233 (HLA class II histocompatibility antigen gamma chain)
The experiment in a line: Cell proliferation inhibition, Ba/F3-TRKs stable strain (CCK-8). The format is cell-based, mouse. As to conditions: 72 hours, read-out: cell viability IC50 CD74-NTRK1. From the text: (§1) The BaF3 cells (mouse pre-B cells) used in this experiment were purchased from the Japanese Cell Bank. All of the monoclonal stable strains, BaF3-CD74-NTRK1, BaF3-ETV6-NTRK2 and BaF3-ETV6-NTRK3 were constructed by our laboratory, and were identified by experiments such as positive control, protein expression and gene sequencing.
(§2) The brief steps of stable strain construction were as follows: constructed pCDNA3.1(+) plasmid vector carrying genes such as CD74-NTRK1, ETV6-NTRK2, ETV6-NTRK3; the plasmid was electroporated into Ba/F3 cells using Amaxa® Cell Line Nucleofector® Kit V; 48 hours after electroporation, geneticin (G418) with a final concentration of 1000 μg/mL was added to screen for two weeks, and the interleukin 3 (IL3) was removed to continue screening to obtain polyclonal stable strains; and then single clones were selected by limiting dilution method; the stable strains were then identified by the positive drugs, Western Blot (WB), and gene sequencing; the correct monoclonal through identification can be used to study the cell proliferation inhibitory activity of the inhibitors.
(§3) Cell proliferation inhibitory activity study: The cells in logarithmic growth phase were seeded into 96-well plates at 8000-12000 cells/well, and the inhibitors at different concentrations of (0-10 μM) were added the next day, and the culture was continued for 72 hours; then 10 μL of Cell Counting Kit-8 Cell Counting Reagent (CCK-8 Reagent) was added to each well, and continued to incubate for 1-3 hours; then its absorbance at 450 nm and 650 nm were measured with a super microplate reader. The median inhibitory concentration (IC50) was calculated using medical graphing software (GraphPad Prism 8.0.0).

The next data set deals with T3, BaF3-ETV6-NTRK3 (Homo sapiens, UniProt Q16288).
T3 construct: fused on or other part: P41212 (Transcription factor ETV6)
The description is as above. Type of data set: cell-based, mouse. The settings on record: 72 hours, read-out: cell viability IC50 ETV6-NTRK3.
From the text: as §1, §2, §3

The nature of data set [1]: Pharmacokinetic and oral bioavailability tests in SD rats. Type of data set: in vivo. The protocol:
Pharmacokinetic and oral bioavailability tests were performed in SD rats. According to the drug's solubility, the drug was administered orally and intravenously as a single dose. Animal blood samples were collected at different time points (0, 0.5, 1, 2, 4, 6, 8, 24 hours), and added with heparin for anticoagulation, then centrifugated to obtain the supernatant. Blood samples were analyzed by HPLC-MS, and DAS2.1 was used for data analysis to detect half-life (T½), maximum blood concentration (Cmax), peak time (Tmax), area under the curve (AUC), and bioavailability (BA) and other pharmacokinetic data.

Data set [2] deals with Ba/F3-CD74-TRKAG^667C allograft mouse model. In words: In vivo antitumor efficacy, allograft mouse model. More on the design: species or system CB17-SCID female mice. The settings on record: for TGI: after treatment for 12 days. The protocol:
(§4) After washed twice with normal saline, the cells were adjusted to a density of 1×10^7 cells/mL and placed on ice, and injected subcutaneously into the right axilla of CB17-SCID female mice (purchased from Viton Lever, Beijing, 6-8 weeks old) as soon as possible, with 200 μL each injection.
(§5) The control group was given the same volume of mixed solvent orally. Body weight and tumor volume were recorded every two days.

Data set [3] in a line: Effect on the body weight of mice in the allograft study. The format is in vivo, CB17-SCID female mice. As to conditions: four doses 6.25, 12.5, 25, 50 mg/kg oral once a day. The procedure: as §4, §5
The target of another data set is Bcr-Abl (Homo sapiens, UniProt P00519). The experiment in a line: Kinase selectivity, Z'-LYTE.
The next data set addresses SRC (Homo sapiens, UniProt P12931). In words: Kinase selectivity, Z'-LYTE.
A further data set addresses RET (Homo sapiens, UniProt P07949). The experiment in a line: Kinase selectivity, Z'-LYTE.
In a further data set the target is VEGFR2 (Homo sapiens, UniProt P35968). The experiment in a line: Kinase selectivity, Z'-LYTE.
The next data set concerns the target Kit (Homo sapiens, UniProt P10721). In words: Kinase selectivity, Z'-LYTE.
For another data set, the target named is PDGFRA (Homo sapiens, UniProt P16234). The experiment in a line: Kinase selectivity, Z'-LYTE.
For another data set, the target named is PDGFRB (Homo sapiens, UniProt P09619). In words: Kinase selectivity, Z'-LYTE.
For the next data set, the target named is T4, TRKB (Homo sapiens, UniProt Q16620).
T4 construct: purchased American Life Technologies PV3616
The experiment in a line: Z'-LYTE kinase activity detection, TRKB. The format is biochemical.

A further data set has as its target T5, BaF3-ETV6-NTRK2 (Homo sapiens, UniProt Q16620).
T5 construct: fused on or other part: P41212 (Transcription factor ETV6)
In words: Cell proliferation inhibition, Ba/F3-TRKs stable strain (CCK-8). Type of data set: cell-based, mouse. As to conditions: 72 hours, read-out: cell viability IC50 ETV6-NTRK2.
From the text: as §1, §2, §3

[4] abbreviates: Sprague-Dawley (SD), rat, plasma, intravenous injection, 2.0 mg/kg.
Where [5] appears, read: Sprague-Dawley (SD), rat, plasma, oral, 10.0 mg/kg.

T4 sequence (Q16620 32-822): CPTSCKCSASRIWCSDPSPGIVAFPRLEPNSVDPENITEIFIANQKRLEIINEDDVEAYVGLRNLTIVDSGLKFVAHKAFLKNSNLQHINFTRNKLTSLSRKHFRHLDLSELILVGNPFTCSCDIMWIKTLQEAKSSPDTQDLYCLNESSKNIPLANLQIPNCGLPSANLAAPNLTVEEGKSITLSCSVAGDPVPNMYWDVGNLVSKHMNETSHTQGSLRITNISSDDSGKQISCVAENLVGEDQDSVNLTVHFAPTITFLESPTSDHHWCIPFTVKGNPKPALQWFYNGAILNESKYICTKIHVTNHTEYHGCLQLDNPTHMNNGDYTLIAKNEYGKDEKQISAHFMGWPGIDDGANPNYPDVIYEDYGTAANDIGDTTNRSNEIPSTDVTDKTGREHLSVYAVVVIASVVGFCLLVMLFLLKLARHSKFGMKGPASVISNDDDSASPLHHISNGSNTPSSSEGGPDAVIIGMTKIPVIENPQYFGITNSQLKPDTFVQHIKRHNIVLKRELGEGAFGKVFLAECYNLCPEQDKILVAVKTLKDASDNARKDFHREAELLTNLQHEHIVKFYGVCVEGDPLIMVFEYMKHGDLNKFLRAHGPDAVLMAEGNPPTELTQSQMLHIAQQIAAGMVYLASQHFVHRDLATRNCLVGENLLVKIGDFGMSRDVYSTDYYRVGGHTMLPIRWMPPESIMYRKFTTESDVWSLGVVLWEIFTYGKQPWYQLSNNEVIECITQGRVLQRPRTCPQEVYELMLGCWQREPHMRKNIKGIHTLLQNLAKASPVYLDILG
T2 sequence (P04629 510-796 limits assumed): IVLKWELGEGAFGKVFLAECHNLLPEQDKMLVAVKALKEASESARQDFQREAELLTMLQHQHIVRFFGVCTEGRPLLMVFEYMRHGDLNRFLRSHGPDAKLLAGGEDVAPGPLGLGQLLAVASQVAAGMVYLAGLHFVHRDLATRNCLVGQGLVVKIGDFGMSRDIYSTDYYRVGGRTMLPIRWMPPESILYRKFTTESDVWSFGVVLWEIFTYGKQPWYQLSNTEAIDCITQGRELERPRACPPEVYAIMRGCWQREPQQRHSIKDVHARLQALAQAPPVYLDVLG
T5 sequence (Q16620 538-822 limits assumed): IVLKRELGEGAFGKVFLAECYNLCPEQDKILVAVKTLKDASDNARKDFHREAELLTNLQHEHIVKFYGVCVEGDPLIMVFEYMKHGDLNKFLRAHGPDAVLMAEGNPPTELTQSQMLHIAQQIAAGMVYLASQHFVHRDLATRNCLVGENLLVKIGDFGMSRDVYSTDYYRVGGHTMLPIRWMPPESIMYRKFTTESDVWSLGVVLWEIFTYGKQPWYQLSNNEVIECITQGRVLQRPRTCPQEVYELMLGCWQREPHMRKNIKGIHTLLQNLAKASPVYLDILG
T1 sequence (Q16288 32-839): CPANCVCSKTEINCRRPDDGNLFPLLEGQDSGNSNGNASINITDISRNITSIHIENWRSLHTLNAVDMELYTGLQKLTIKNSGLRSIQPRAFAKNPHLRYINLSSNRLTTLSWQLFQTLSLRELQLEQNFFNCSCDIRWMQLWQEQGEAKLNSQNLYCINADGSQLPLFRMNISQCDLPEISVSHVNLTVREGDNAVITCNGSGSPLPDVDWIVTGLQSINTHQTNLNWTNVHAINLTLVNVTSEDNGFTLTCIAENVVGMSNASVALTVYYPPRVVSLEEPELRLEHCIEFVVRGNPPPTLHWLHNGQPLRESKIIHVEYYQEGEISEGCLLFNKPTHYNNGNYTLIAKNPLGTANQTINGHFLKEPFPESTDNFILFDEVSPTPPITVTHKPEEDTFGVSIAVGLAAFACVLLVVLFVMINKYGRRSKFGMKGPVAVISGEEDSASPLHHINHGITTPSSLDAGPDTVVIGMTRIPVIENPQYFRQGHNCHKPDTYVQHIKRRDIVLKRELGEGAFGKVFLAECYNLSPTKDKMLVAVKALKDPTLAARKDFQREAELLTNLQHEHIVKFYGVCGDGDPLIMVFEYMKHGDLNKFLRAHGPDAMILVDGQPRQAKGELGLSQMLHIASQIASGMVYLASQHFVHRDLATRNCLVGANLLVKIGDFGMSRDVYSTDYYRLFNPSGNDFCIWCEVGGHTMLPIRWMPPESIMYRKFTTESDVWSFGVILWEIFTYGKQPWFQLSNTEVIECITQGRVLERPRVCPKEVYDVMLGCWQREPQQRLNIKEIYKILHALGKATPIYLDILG
T3 sequence (Q16288 whole entry, the tested form may be a part): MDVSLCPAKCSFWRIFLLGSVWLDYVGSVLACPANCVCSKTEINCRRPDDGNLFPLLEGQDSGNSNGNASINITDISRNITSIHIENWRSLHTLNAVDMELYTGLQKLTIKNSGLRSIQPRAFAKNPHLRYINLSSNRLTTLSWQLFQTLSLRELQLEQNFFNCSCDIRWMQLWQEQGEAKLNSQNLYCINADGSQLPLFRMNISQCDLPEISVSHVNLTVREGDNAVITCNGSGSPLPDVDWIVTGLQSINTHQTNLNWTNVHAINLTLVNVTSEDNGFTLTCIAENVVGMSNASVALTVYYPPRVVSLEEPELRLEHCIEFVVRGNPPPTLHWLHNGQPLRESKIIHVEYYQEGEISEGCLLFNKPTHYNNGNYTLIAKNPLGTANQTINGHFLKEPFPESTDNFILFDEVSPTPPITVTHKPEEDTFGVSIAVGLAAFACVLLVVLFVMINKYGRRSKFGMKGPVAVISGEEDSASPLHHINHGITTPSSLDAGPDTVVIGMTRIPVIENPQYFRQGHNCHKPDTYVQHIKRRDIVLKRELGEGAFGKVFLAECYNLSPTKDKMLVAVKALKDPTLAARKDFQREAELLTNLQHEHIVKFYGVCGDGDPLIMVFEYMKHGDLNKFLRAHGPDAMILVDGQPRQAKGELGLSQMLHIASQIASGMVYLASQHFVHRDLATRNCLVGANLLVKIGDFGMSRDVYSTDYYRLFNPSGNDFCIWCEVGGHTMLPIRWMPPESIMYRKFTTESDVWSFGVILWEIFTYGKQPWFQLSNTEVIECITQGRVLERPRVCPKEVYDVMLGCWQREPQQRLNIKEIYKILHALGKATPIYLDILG
Sequence of VEGFR2 (P35968 20-1356, species assumed): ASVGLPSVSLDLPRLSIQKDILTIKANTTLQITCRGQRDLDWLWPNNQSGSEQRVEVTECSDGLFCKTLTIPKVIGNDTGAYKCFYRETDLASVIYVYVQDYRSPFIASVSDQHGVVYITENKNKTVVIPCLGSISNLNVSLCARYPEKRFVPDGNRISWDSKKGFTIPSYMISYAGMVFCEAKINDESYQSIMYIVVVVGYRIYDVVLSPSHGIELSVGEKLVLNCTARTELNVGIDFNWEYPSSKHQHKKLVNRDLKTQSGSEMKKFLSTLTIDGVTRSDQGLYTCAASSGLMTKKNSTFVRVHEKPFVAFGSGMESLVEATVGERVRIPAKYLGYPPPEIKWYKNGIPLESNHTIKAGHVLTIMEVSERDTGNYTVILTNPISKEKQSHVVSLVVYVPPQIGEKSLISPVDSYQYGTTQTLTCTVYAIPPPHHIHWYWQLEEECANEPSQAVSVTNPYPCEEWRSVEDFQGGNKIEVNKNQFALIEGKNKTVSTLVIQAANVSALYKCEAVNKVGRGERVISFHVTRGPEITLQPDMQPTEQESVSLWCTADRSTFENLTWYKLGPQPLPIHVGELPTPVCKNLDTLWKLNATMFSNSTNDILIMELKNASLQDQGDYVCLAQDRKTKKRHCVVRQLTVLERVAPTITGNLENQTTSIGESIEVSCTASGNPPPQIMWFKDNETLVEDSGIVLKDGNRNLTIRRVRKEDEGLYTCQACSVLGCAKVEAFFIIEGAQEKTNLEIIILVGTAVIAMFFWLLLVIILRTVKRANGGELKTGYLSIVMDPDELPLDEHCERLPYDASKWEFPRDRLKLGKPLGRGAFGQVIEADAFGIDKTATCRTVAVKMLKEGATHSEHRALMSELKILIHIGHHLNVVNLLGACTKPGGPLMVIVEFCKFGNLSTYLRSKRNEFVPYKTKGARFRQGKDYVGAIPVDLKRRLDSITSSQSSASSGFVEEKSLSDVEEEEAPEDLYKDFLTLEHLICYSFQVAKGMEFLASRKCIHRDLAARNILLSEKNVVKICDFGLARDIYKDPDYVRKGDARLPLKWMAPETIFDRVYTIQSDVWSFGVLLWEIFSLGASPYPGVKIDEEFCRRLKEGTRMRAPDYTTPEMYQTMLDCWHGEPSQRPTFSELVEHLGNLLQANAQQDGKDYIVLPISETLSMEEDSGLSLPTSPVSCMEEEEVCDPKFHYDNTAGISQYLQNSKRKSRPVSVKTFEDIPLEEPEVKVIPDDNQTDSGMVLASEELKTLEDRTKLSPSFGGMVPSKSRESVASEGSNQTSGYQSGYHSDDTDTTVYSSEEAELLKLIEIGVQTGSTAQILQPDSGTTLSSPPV
Sequence of SRC (P12931 whole entry, species assumed): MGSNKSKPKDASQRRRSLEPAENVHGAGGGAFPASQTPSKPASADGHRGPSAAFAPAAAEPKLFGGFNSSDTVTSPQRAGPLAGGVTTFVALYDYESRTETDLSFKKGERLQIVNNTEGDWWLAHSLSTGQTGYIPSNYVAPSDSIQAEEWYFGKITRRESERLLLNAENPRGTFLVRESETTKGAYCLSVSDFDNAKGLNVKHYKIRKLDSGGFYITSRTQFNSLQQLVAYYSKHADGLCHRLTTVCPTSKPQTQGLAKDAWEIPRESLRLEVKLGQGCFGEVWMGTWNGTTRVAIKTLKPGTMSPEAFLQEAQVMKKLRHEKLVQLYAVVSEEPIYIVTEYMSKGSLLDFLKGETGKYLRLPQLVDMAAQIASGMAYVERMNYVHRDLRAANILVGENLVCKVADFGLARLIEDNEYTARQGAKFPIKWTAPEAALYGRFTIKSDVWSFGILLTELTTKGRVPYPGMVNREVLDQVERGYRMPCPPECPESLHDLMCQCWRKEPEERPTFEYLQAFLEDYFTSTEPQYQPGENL
Description for Bcr-Abl: (§6) Enzymatic reaction: In a 384-well plate, added 5 μL of enzyme-substrate system [50 mM 4-hydroxyethylpiperazineethanesulfonic acid (HEPES) pH 7.5, 0.01% BRIJ-35, 10 mM of magnesium chloride (MgCl2), 1 mM of ethylene glycol bis(2-aminoethyl ether)tetraacetic acid (EGTA), 2 μM of Tyr 01 peptide substrate], transferred 5 nL of compound (concentration gradient) using an Echo520 Ultra-Micro Liquid Pipetting System. […] Shaked and mixed, then centrifuged, and reacted at 30° C. in the dark for 1.5 hours.
Description for Kit: as §6
Description for PDGFRA: as §6
Description for PDGFRB: as §6
Description for RET: as §6
Description for SRC: as §6
Description for VEGFR2: as §6

In the case of `Cc1c(C#Cc2cnc3ccc(N4CCC(O)CC4)nn23)cccc1C(=O)Nc1cc(Cl)cc(C(F)(F)F)c1` [XS3-55, N-(3-CHLORO-5-(TRIFLUOROMETHYL)PHENYL)-3-((6-(4-HYDROXYPIPERIDIN-1-YL)IMIDAZO[1,2-B]PYRIDAZINE-3-YL)ETHYNYL)-2-METHYLBENZAMIDE], the IC50 on TRKC was 0.01 to 0.1 µM; at BaF3-CD74-NTRK1, 0.01 to 0.1 µM; at BaF3-ETV6-NTRK3 it was 0.01 to 0.1 µM; on Bcr-Abl it was greater than 10 µM; on SRC, 0.526 µM; against RET, greater than 10 µM. Also, the IC50 against VEGFR2 was 0.833 µM; against Kit it was 1.67 µM; against PDGFRA, 5.89 µM; on PDGFRB, greater than 10 µM. Further, the total exposure AUC(0-inf) in data set [1] (setting [4]) was determined as 549 µg·h/mL; in [1] (setting [5]), 878 µg·h/mL. The AUC(0-t) in [1] (setting [4]) is 358 µg·h/mL; in data set [1] (setting [5]), 561 µg·h/mL. The Cmax was determined as 46100 ng/mL in data set [1] (setting [4]) and 44100 ng/mL in data set [1] (setting [5]). For the same molecule, the Tmax in data set [1] (setting [4]) stood at 0.08 h; in data set [1] (setting [5]), 4 h. Further, the figures for the half-life in data set [1] (setting [4]) and in [1] (setting [5]) were 16.1 h and 15.2 h, respectively. Besides, the clearance in [1] (Sprague-Dawley (SD), rat, plasma, intravenous injection, 2.0 mg/kg, read-out: Clearance rate (converted)) is 3.65 mL/h/kg. The molecule also showed a BA in data set [1] (oral 10.0 mg/kg vs intravenous 2.0 mg/kg) of 31.32%. The TGI in data set [2] (6.25 mg/kg/day oral) is 50.9%; in data set [2] (12.5 mg/kg/day oral), 76.3%; in [2] (25 mg/kg/day oral), 89.2%; in data set [2] (50 mg/kg/day oral) it was 91.6%. For the same molecule, the tumor size entry in data set [2] (after 2 days of treatment at the lowest dose of 6.25 mg/kg, oral) was “Significant reductions in tumor size”. Also, the “effect on mouse body weight” value in [3] is “no obvious adverse effect”.

As for `Cc1c(C#Cc2cnc3ccc(N4CCOCC4)nn23)cccc1C(=O)Nc1cc(CN2CCN(C)CC2)cc(C(F)(F)F)c1` [XS3-68, 2-METHYL-N-(3-((4-METHYLPIPERAZIN-1-YL)METHYL)-5-(TRIFLUOROMETHYL)PHENYL)-3-((6-METHYLENE) LINOIMIDAZO[1,2-B]PYRIDAZIN-3-YL)ETHYNYL)BENZAMIDE], the IC50 against TRKB is less than 0.01 µM; on TRKC, less than 0.01 µM; at BaF3-CD74-NTRK1, less than 0.01 µM; at BaF3-ETV6-NTRK2, 0.01 to 0.1 µM; at BaF3-ETV6-NTRK3, less than 0.01 µM.

Take `Cc1c(C#Cc2cnc3ccc(N4CCC(O)CC4)nn23)cccc1C(=O)Nc1cc(CN2CCN(C)CC2)cc(C(F)(F)F)c1` [XS3-81, 3-((6-(4-HYDROXYPIPERIDIN-1-YL)IMIDAZO[1,2-B]PYRIDAZIN-3-YL)ETHYNYL)-2-METHYL-N-(3-(((4-METHYLPIPERAZIN-1-YL)METHYL)-5-(TRIFLUOROMETHYL)PHENYL)BENZAMIDE]: the IC50 at TRKB is less than 0.01 µM; against TRKC it was less than 0.01 µM; on BaF3-CD74-NTRK1, 0.01 to 0.1 µM; at BaF3-ETV6-NTRK2, less than 0.01 µM; at BaF3-ETV6-NTRK3, less than 0.01 µM.

For `Cc1cn(-c2cc(NC(=O)c3cccc(C#Cc4cnc5ccc(N6CCC(O)CC6)nn45)c3C)cc(C(F)(F)F)c2)cn1` [XS3-87, 3-((6-(4-HYDROXYPIPERIDIN-1-YL)IMIDAZO[1,2-B]PYRIDAZIN-3-YL)ETHYNYL)-2-METHYL-N-(3-(4-METHYL-1H-IMIDAZOL-1-YL)-5-(TRIFLUOROMETHYL)PHENYL)BENZAMIDE], the IC50 was less than 0.01 µM against TRKB; less than 0.01 µM on TRKC; less than 0.01 µM at BaF3-CD74-NTRK1; 0.01 to 0.1 µM at BaF3-ETV6-NTRK2; less than 0.01 µM on BaF3-ETV6-NTRK3.

In general, IC50 refers to the concentration at which inhibition is half-maximal. For orientation: AUC(0-inf) means the area under the concentration-time curve extrapolated to infinity. Broadly, the AUC(0-t) is exposure summed from dosing to a finite time, without extrapolation to infinity. Read a low AUC(0-t) as less exposure. The term Cmax denotes the peak of the concentration-time curve. What is called Tmax is the time at which the peak concentration occurs. By half-life is commonly meant the time needed for the level to fall by half in the phase considered. The low end stands for fast loss, the high end for slow loss. By TGI is commonly meant how far tumour growth fell short of that in controls. A low value points to a weaker effect on the tumour.
